Measurements: article PMC7914897, “Cytotoxic Potential of a-Azepano- and 3-Amino-3,4-SeCo-Triterpenoids” (International Journal of Molecular Sciences, 2021)

Key:
[1] = tested on: A2780 (ovarian carcinoma); test: SRB cytotoxicity assay, 72 h; assay type: cell-based, human; settings: Homo sapiens; A2780, 72 h, cut-off 30 µM; read-out: EC50
Method in brief: (§1)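 Absorbance at 570 nm of SRB-stained cells gives % survival vs untreated controls, from which EC50 is determined. Treatment: 0–30 µM serial dilutions, 72 h, beginning 24 h post-seeding; DMSO ≤0.5%. TCA (10%) fixation, acetic acid wash.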

[2] = tested on: A375 (malignant melanoma); test: SRB cytotoxicity assay, 72 h; assay type: cell-based, human; settings: Homo sapiens, A-375, 72 h, A375, 72 h, cut-off 30 µM; read-out: EC50
Method in brief: as §1

[3] = tested on: FaDu (hypopharyngeal carcinoma); test: SRB cytotoxicity assay, 72 h; assay type: cell-based, human; settings: Homo sapiens, cut-off 30 µM, read-out: EC50
Method in brief: as §1

[4] = tested on: HT29 (colorectal carcinoma); test: SRB cytotoxicity assay, 72 h; assay type: cell-based, human; settings: Homo sapiens, HT-29; HT29, 72 h, cut-off 30 µM; read-out: EC50
Method in brief: as §1

[5] = tested on: MCF-7 (breast carcinoma); test: SRB cytotoxicity assay, 72 h; assay type: cell-based, human; settings: Homo sapiens, MCF7; MCF-7, 72 h, cut-off 30 µM; read-out: EC50
Method in brief: as §1

[6] = tested on: OVCAR-4 (Ovarian cancer); test: NCI-60 screen (SRB, 48 h); assay type: cell-based; settings: Homo sapiens
[7] = tested on: CNS cancer subpanel; test: NCI-60 screen, subpanel; settings: Homo sapiens
[8] = tested on: Renal Cancer subpanel; test: NCI-60 screen, subpanel; settings: Homo sapiens
[9] = tested on: EKVX (NSC lung cancer); test: NCI-60 screen (SRB, 48 h); settings: Homo sapiens
[10] = tested on: NCI-H226 (NSC lung cancer); test: NCI-60 screen (SRB, 48 h); settings: Homo sapiens, NCI-H226
[11] = tested on: NCI-H460 (NSC lung cancer); test: NCI-60 screen (SRB, 48 h); settings: Homo sapiens
[12] = tested on: NCI-H522 (NSC lung cancer); test: NCI-60 screen (SRB, 48 h); settings: Homo sapiens
[13] = tested on: HCC-2998 (Colon cancer); test: NCI-60 screen (SRB, 48 h); settings: Homo sapiens, HCC 2998
[14] = tested on: KM12 (Colon cancer); test: NCI-60 screen (SRB, 48 h); settings: Homo sapiens
[15] = tested on: SW-620 (Colon cancer); test: NCI-60 screen (SRB, 48 h); settings: Homo sapiens
[16] = tested on: SF-295 (CNS cancer); test: NCI-60 screen (SRB, 48 h); settings: Homo sapiens
[17] = tested on: SNB-19 (CNS cancer); test: NCI-60 screen (SRB, 48 h); settings: Homo sapiens
[18] = tested on: MALME-3M (Melanoma); test: NCI-60 screen (SRB, 48 h); settings: Homo sapiens
[19] = tested on: SK-MEL-5 (Melanoma); test: NCI-60 screen (SRB, 48 h); settings: Homo sapiens
[20] = tested on: A498 (Renal cancer); test: NCI-60 screen (SRB, 48 h); settings: Homo sapiens
[21] = tested on: ACHN (Renal cancer); test: NCI-60 screen (SRB, 48 h); settings: Homo sapiens
[22] = tested on: TK-10 (Renal cancer); test: NCI-60 screen (SRB, 48 h); settings: Homo sapiens
[23] = tested on: MCF7 (Breast cancer); test: NCI-60 screen (SRB, 48 h); settings: Homo sapiens
[24] = tested on: T-47D (Breast cancer); test: NCI-60 screen (SRB, 48 h); settings: Homo sapiens, T47D

C[C@H]1[C@H](C)CC[C@]2(C(=O)Nc3ccc4ncccc4c3)CC[C@]3(C)C(=CC[C@@H]4[C@@]5(C)CCCNC(C)(C)[C@@H]5CC[C@]43C)[C@H]12 [Compound 14]
EC50 [1]: 1800 ± 100 nM
EC50 [2]: 1570 ± 800 nM
EC50 [3]: 1790 ± 200 nM
EC50 [4]: 1550 ± 100 nM
EC50 [5]: 1640 ± 100 nM
IC (TGI) ([6]; OVCAR-4, 48 h): 3250 nM
GI50 ([6]; OVCAR-4, read-out: GI50): 1660 nM
IC (TGI) ([7]; 48 h, read-out: TGI MG_MID): 3170 nM
GI50 ([7]; read-out: GI50 MG_MID): 1670 nM
IC (TGI) ([8]; 48 h, read-out: TGI MG_MID): 3240 nM
GI50 ([8]; read-out: GI50 MG_MID): 1660 nM
CC50 ([8]; read-out: LC50 MG_MID): 5600 nM
GI50 [9]: 1660 nM
GI50 [10]: 2100 nM
GI50 ([11]; NCI-H460): 1940 nM
IC (TGI) ([11]; NCI-H460, 48 h, read-out: TGI): 3820 nM
CC50 ([11]; NCI-H460, read-out: LC50): 7530 nM
GI50 ([12]; NCI-H522): 1750 nM
IC (TGI) ([12]; NCI-H522, 48 h, read-out: TGI): 3330 nM
GI50 [13]: 1400 nM
GI50 ([14]; KM12): 1890 nM
IC (TGI) ([14]; KM12, 48 h, read-out: TGI): 3630 nM
GI50 ([15]; SW-620): 1800 nM
IC (TGI) ([15]; SW-620, 48 h, read-out: TGI): 3370 nM
CC50 ([15]; SW-620, read-out: LC50): 6310 nM
GI50 ([16]; SF-295): 1650 nM
IC (TGI) ([16]; SF-295, 48 h, read-out: TGI): 3170 nM
GI50 ([17]; SNB-19): 1850 nM
IC (TGI) ([17]; SNB-19, 48 h, read-out: TGI): 3400 nM
GI50 [18]: 1660 nM
GI50 ([19]; SK-MEL-5): 1850 nM
IC (TGI) ([19]; SK-MEL-5, 48 h, read-out: TGI): 3320 nM
CC50 ([19]; SK-MEL-5, read-out: LC50): 5940 nM
GI50 ([20]; A498): 1560 nM
IC (TGI) ([20]; A498, 48 h, read-out: TGI): 2960 nM
CC50 ([20]; A498, read-out: LC50): 5600 nM
GI50 [21]: 1770 nM
IC (TGI) ([21]; 48 h, read-out: TGI): 3240 nM
GI50 ([22]; TK-10): 1690 nM
IC (TGI) ([22]; TK-10, 48 h, read-out: TGI): 3200 nM
GI50 ([23]; MCF7): 1560 nM
IC (TGI) ([23]; MCF7, 48 h, read-out: TGI): 3250 nM
GI50 [24]: 1670 nM
IC (TGI) ([24]; 48 h, read-out: TGI): 3640 nM
